Test [1] concerns the target T1, affinity-purified CDK12-F-CycK (Homo sapiens, UniProt Q9NYV4).
T1 construct: made in house
As to the kind of experiment: In vitro kinase reaction, GST-CTD substrate, pSer2 Western blotting. The settings on record: even at 80 nM. The class given is biochemical. How it is done: (§1) Figure 1. i-CDK9 is a potent and selective CDK9 inhibitor that elicits cellular responses indicative of P-TEFb inhibition. (A and B) Structures and selectivity profiles of i-CDK9 (A) and falvopiridol (B). […] (C) In vitro kinase reactions containing affinity-purified CDK9-F-CycT or CDK12-F-CycK and GST-CTD as a substrate were conducted in the presence of the indicated concentrations of i-CDK9. pSer2 and the Flag-tagged kinase in each reaction were detected by Western blotting with anti-pSer2 and anti-Flag antibodies, respectively. (D) HeLa cells were treated for 8 hr with DMSO or the indicated concentrations of i-CDK9. Total cell lysates were examined by immunoblotting for the proteins labeled on the left. DOI: http://dx.doi.org/10.7554/eLife.06535.003 Figure 1—source data 1. Selectivity profile of i-CDK9. DOI: http://dx.doi.org/10.7554/eLife.06535.004 Figure 1—figure supplement 1. Recombinant CDK12-CycK is less sensitive to inhibition by i-CDK9.
(§2) Among all members of the CDK super family, CDK12 deserves special attention because of its reported phosphorylation of the Pol II CTD on Ser2, an ability that is shared with CDK9 ([Bartkowiak et al., 2010]). […] Phosphorylation of Ser2 (pSer2) was detected by Western blotting with a specific antibody.
(In general: Immunoblotting shows a protein as a band on a membrane.)

For test [2], the target named is T2, affinity-purified CDK9-F-CycT (Homo sapiens, UniProt P50750).
T2 construct: made in house; host or cells: probably the HeLa-based F1C2 cells
The test is described as above. The class given is biochemical. The following applies: read-out: estimated IC50 of Ser2 phosphorylation. How it is done: as §1, §2

The target of the next test is CDK9 (Homo sapiens, UniProt P50750). The test can be described thus: KINOMEscan binding assay. More on the design: purchased DiscoveRx KINOMEscan. The settings on record: read-out: % Retention on Solid Support. The procedure: (§3) As there are no commercial or in-house kinase assays available for CDK3, CDK5, CDK11 and CDK13, the inhibitory abilities of i-CDK9 toward these CDKs were thus evaluated in the DiscoveRx KINOMEscan assay, which is based on a proprietary active site-directed competition-binding platform ([Fabian et al., 2005]).
(§4) The inhibitory activity of i-CDK9 for CDK1-CycB (Upstate/Millipore), CDK2-CycA (Invitrogen), CDK4-CycD1 (Novartis), CDK7-CycH-MAT1 (Invitrogen), and CDK9-CycT1 (Invitrogen) was assessed in the AlphaScreen (PerkinElmer, Inc)-based kinase assay developed at Novartis. Briefly, each CDK–cyclin pair was pre-incubated with i-CDK9 for 15 min, followed by addition of kinase substrates (ELK for CDK1 and CDK2, RB for CDK4, and CDK7tide for CDK7 and CDK9). The mixture was incubated at room temperature for additional 4–5 hr. The reaction was stopped and read on Envision (PerkinElmer, Inc). Selectivity against a large panel of over 400 kinases was evaluated using the KINOMEscan platform (DiscoveRx, CA) employing a proprietary active site-directed competition binding assay ([Fabian et al., 2005]). The assay was conducted at two different concentrations of i-CDK9 (1 and 10 µM) by DiscoveRx.

Test [3] has as its target JAK1(JH2domain-pseudokinase) (Homo sapiens, UniProt P23458). The test can be described thus: KINOMEscan binding assay. Set-up: JAK1(JH2domain-pseudokinase); purchased DiscoveRx KINOMEscan. How it is done:
as §3, §4

Sequence of JAK1(JH2domain-pseudokinase) (P23458 561-860 limits assumed): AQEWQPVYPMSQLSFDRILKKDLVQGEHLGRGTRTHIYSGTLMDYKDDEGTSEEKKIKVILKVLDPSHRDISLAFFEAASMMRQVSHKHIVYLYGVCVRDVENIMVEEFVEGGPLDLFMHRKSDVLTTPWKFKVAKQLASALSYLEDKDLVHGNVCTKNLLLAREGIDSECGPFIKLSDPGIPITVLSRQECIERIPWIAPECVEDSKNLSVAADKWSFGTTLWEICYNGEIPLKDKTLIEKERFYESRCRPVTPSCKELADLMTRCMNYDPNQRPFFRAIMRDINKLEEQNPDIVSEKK
Sequence of CDK9 (P50750 whole entry): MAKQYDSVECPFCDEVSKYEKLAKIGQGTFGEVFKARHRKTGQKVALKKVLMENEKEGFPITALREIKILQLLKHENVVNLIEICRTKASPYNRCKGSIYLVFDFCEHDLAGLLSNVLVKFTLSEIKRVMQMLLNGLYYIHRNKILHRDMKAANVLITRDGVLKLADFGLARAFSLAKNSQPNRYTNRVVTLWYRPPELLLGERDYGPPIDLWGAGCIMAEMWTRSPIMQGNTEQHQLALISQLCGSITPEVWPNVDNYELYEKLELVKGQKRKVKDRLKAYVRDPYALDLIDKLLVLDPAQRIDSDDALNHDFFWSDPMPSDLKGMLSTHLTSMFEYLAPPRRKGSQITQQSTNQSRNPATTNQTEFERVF
T1 sequence (Q9NYV4 whole entry): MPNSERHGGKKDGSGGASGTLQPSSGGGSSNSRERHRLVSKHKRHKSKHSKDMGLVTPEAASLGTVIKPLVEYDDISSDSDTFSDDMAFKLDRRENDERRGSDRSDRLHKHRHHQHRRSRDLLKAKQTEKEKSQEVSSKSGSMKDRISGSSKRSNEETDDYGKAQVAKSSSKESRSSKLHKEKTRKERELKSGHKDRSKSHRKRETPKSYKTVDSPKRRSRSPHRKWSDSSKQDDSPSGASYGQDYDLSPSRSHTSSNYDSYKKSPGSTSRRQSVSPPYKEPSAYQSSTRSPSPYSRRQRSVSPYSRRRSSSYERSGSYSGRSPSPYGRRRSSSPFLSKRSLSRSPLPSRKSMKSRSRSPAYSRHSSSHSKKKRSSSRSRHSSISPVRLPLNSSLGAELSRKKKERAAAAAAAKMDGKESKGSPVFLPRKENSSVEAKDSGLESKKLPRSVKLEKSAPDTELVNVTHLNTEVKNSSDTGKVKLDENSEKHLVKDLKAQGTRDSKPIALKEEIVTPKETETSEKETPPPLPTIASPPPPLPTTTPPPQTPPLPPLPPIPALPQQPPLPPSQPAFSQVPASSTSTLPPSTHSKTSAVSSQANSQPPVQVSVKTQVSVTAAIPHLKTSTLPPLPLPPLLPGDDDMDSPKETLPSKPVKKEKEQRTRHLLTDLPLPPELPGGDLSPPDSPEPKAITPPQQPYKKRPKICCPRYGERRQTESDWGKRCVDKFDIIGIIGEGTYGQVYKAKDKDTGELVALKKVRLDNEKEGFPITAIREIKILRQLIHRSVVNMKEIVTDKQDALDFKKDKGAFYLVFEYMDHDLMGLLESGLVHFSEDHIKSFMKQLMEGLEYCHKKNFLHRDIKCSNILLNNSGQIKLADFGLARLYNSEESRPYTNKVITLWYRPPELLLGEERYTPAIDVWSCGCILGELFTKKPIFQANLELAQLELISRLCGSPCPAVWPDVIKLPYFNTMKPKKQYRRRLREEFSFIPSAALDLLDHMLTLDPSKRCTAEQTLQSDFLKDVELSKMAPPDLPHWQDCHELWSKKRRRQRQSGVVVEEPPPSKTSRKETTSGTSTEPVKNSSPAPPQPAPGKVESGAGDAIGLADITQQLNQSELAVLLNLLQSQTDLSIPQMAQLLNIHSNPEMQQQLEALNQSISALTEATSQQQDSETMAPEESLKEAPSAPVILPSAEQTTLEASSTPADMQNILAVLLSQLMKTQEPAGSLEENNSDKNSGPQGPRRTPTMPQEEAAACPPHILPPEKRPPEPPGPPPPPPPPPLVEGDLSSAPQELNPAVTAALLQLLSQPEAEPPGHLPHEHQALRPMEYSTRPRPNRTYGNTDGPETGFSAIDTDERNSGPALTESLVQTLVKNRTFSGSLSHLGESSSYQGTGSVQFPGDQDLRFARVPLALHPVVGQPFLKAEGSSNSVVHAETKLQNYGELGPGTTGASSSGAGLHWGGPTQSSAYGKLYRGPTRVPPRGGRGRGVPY
T1 sequence (O75909 whole entry partner): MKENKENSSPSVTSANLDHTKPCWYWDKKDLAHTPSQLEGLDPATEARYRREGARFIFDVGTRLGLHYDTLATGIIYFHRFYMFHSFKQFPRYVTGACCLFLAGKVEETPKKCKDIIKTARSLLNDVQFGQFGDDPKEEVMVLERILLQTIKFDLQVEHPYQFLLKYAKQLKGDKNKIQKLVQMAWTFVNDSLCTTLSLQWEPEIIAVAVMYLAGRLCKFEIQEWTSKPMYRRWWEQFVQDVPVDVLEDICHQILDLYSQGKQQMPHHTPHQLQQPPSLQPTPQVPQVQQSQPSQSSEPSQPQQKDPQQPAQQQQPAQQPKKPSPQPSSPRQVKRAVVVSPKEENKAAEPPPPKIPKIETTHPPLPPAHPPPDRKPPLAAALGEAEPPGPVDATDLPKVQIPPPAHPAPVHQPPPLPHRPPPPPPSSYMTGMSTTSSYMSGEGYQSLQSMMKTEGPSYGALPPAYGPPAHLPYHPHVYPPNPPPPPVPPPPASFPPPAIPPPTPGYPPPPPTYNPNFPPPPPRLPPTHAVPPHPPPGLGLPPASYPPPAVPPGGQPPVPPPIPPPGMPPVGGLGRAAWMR
T2 sequence (P50750 whole entry): as the sequence (P50750 whole entry) above
T2 sequence (O60563 whole entry partner): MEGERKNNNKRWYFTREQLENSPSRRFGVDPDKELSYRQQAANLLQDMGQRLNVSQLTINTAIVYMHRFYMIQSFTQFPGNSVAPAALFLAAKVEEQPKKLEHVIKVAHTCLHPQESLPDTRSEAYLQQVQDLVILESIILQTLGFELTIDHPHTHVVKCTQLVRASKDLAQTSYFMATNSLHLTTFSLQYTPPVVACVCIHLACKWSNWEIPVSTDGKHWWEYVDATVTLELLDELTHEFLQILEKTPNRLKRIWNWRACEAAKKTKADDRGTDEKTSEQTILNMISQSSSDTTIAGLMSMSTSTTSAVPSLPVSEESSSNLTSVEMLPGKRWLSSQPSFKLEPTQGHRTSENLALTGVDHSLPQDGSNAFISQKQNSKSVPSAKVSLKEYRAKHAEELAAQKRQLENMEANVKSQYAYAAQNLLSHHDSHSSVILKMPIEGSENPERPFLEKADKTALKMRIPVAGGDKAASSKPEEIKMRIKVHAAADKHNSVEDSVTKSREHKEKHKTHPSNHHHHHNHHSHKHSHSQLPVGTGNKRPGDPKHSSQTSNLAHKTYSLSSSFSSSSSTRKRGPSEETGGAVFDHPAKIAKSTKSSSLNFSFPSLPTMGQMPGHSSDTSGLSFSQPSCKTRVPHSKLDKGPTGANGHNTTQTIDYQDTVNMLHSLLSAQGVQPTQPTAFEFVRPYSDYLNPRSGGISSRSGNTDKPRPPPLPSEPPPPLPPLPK

In the case of `N[C@H]1CC[C@H](Nc2cc(-c3cccc(NCc4cccc(F)c4)n3)c(Cl)cn2)CC1` [i-CDK9, N2′-(trans-4-aminocyclohexyl)-5′-chloro-N6-(3-fluorobenzyl)-2,4′-bipyridine-2′,6-diamine], the “inhibition of Ser2 phosphorylation” value in test [1] was “no obvious inhibition”. Besides, the IC50 (commonly the concentration that gives 50% inhibition) in test [2] was around 2 nM. Moreover, the remaining binding at 1 µM on CDK9 (1 µM i-CDK9) came to 5.1%. The remaining binding at 10 µM at CDK9 (10 µM i-CDK9) was 0%. The figures for the “% Retention on Solid Support” value in test [3] (1 µM i-CDK9) and in test [3] (10 µM i-CDK9) were 85% and 81%, respectively.

The values above are taken from PMC4490784, “Compensatory induction of MYC expression by sustained CDK9 inhibition via a BRD4-dependent mechanism” (eLife, 2015).
